Experimental findings from US9012166B2, “Method for assaying histone methylation enzyme activity” (Kyushu Institute of Technology, priority 2010, dated 2015) are described below.

Holding throughout (type): biochemical
The subject of assay [1] is trypsin. The experiment in a line: Mixing assay of substrate compound with peptidase (trypsin), AMC fluorescence. The following applies: 1,000 μM BocLys(Me)nMCA and trypsin; λex 390 nm, λem 460 nm. As for the experimental part: (§1) Distilled water was added to 10 μL of 2×HMT buffer (100 mM Tris-HCl (pH 8.5), 20 mM MgCl2, 40 mM KCl, 20 mM 2-mercaptoethanol, 500 mM sucrose) and 1 μL of a BocLysMCA solution to adjust the total volume to 20 μL. To the resultant solution was added 30 μL of a peptidase solution (20 mg/mL trypsin or 20 mAU/mL lysyl endopeptidase), which was then mixed and incubated at 37° C. for 15 minutes. Then, the fluorescence intensity of the solution was measured at an excitation wavelength (λex) of 390 nm and a fluorescence wavelength (λem) of 460 nm. The wavelength is a wavelength for detecting AMC (7-amino-4-methylcoumarin) released by the cleavage of the amide bond between Lys and MCA of BocLysMCA. The fluorescence intensity of AMC was similarly measured by performing a mixing assay by the same method as the above method except for using monomethylated BocLysMCA (i.e., “BocLys(Me)MCA”), dimethylated BocLysMCA (i.e., “BocLys(Me)2MCA”), or trimethylated BocLysMCA (i.e., “BocLys(Me)3MCA”) in place of BocLysMCA.

Assay [2] deals with T1, lysyl endopeptidase (Achromobacter lyticus, UniProt P15636). Kind of assay: Mixing assay of substrate compound with peptidase (lysyl endopeptidase), AMC fluorescence. To be noted: 1,000 μM BocLys(Me)nMCA and lysyl endopeptidase; λex 390 nm, λem 460 nm. As for the experimental part:
as §1

In assay [3] the test system is trypsin. Kind of assay: LC/MS analysis of reaction between substrate compound and trypsin. To be noted: Example 3; 37° C., 15 minutes. As for the experimental part:
(§2) Distilled water was added to 10 μL of 2×HMT buffer (100 mM Tris-HCl (pH 8.5), 20 mM MgCl2, 40 mM KCl, 20 mM 2-mercaptoethanol, 500 mM sucrose) and 1 μL of a BocLysMCA solution to adjust the total volume to 20 μL. To the resultant solution was added 30 μL of a peptidase solution (20 mg/mL trypsin or 20 mAU/mL lysyl endopeptidase), which was then mixed and incubated at 37° C. for 15 minutes. Then, the solution was applied to a liquid chromatograph mass spectrometer (LC/MS) for analysis. Analysis was performed by the same method as that for the above analysis except for using monomethylated BocLysMCA (i.e., “BocLys(Me)MCA”), dimethylated BocLysMCA (i.e., “BocLys(Me)2MCA”), or trimethylated BocLysMCA (i.e., “BocLys(Me)3MCA”) in place of BocLysMCA. Analysis was also carried out by the same method except for using, in place of the above-described peptidase solution, an equal volume of distilled water.

Assay [4] concerns the target T1, lysyl endopeptidase. The experiment in a line: LC/MS analysis of reaction between substrate compound and lysyl endopeptidase. The following applies: Example 3; 37° C., 15 minutes. As for the experimental part:
as §2

In the next assay the target is T2, G9a (GST-mG9a) (Mus musculus, UniProt Q9Z148).
T2 sequence (Q9Z148 1-1263): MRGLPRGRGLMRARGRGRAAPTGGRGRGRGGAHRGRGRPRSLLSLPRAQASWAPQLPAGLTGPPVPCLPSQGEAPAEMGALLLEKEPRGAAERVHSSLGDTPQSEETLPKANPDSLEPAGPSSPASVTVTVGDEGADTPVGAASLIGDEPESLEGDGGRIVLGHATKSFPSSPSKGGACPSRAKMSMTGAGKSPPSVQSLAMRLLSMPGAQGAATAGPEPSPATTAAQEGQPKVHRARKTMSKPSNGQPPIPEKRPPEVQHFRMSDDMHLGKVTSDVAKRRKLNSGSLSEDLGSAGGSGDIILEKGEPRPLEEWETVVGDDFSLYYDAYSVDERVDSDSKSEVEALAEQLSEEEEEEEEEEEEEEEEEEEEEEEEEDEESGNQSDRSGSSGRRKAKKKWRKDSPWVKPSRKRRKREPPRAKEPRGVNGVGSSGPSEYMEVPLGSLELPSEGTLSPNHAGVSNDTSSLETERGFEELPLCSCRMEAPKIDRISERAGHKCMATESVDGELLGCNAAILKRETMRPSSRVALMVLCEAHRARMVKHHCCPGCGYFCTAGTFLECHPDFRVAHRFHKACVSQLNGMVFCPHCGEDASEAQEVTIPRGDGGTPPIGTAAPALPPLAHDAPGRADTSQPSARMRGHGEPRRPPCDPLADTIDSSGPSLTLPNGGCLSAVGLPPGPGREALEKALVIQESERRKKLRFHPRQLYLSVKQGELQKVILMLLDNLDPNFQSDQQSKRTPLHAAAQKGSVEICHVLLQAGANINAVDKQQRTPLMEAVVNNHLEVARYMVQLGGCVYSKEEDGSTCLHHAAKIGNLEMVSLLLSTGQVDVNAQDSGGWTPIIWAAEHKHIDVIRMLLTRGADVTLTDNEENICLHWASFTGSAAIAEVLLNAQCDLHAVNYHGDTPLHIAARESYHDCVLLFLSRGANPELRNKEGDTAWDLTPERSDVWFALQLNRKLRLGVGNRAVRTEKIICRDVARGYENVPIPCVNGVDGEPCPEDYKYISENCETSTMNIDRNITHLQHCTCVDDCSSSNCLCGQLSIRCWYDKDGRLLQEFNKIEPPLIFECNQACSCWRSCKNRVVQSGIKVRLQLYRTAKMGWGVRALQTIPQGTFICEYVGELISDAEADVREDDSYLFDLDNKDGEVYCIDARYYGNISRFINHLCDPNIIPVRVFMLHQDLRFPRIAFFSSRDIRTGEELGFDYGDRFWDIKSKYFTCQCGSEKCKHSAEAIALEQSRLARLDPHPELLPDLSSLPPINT
The experiment in a line: Assay for measuring histone methyltransferase activity using peptidyl MCA, inhibitor evaluation with G9a. To be noted: Example 9; Ac-histone H3 (1-9)-MCA; AMC fluorescence λex 390 nm/λem 460 nm; FIG. 19; read-out: IC50 for G9a. As for the experimental part: When G9a was adopted as a histone methyltransferase, the following method was used. 10 μL of 2×HMT buffer (100 mM Tris-HCl (pH 8.5), 20 mM MgCl2, 40 mM KCl, 20 mM 2-mercaptoethanol, 500 mM sucrose), 0.4 μL of a BSA solution (150 μg/mL), 2 μL of GST-mG9a (0, 0.5 μg/μL), 1 μL of gliotoxin (any of various concentrations) and 2.6 μL of distilled water were mixed and then incubated at room temperature for 1 hour. Then, 2 μL of SAM (10 mM) and 2 μL of a peptidyl MCA (Ac-histone H3 (1-9)-MCA) solution (0.6 mM) were added thereto, which was then incubated at 37° C. for 1 hour. Thereafter, 30 μL of a trypsin solution (20 mg/mL) was added thereto, followed by incubation at 37° C. for 15 minutes. Then, the fluorescence intensity of the solution was measured at an excitation wavelength (λex) of 390 nm and a fluorescence wavelength (λem) of 460 nm. The final concentration of GST-mG9a during the measurement of fluorescence intensity was 0.05 μg/μL. The results of the assay for measuring histone methyltransferase activity are shown in the middle panel of FIG. 18.
The rate of the inhibition of methylation by gliotoxin was calculated from the results in the left panel and the middle panel of FIG. 18. Specifically, the value (%) was calculated which was obtained by dividing “a value obtained by subtracting “the fluorescence intensity of AMC when peptidase was added but gliotoxin was not added” from “the fluorescence intensity of AMC when both peptidase and gliotoxin were added”” by “a value obtained by subtracting “the fluorescence intensity of AMC when peptidase was added but gliotoxin was not added” from “the fluorescence intensity of AMC when no peptidase or gliotoxin was added”” and multiplying the resultant value by 100. The rate (%) of the inhibition of methylation by gliotoxin is shown in the right panel of FIG. 18.
Specifically, the assay for measuring histone methyltransferase activity was carried out by the same method as the method using G9a […] in Example 8 except for using S-Adenosyl-L-homocysteine (SAH) in place of gliotoxin. SAH is a by-product of the methylation reaction and is known to inhibit histone methyltransferase in a negative feedback manner. […] The rate (%) of the inhibition of methylation by SAH was calculated from the results in the left panel of FIG. 19. The results are shown in the right panel of FIG. 19.
When G9a was adopted as a histone methyltransferase, the following method was used. […] Then, the fluorescence intensity of the solution was measured at an excitation wavelength (λex) of 330 nm and a fluorescence wavelength (λem) of 380 nm or at an excitation wavelength (λex) of 390 nm and a fluorescence wavelength (λem) of 460 nm. The final concentration of GST-mG9a during the measurement of fluorescence intensity was 0 μg/μL or 0.05 μg/μL.

T1 sequence (P15636 206-473 limits assumed, species assumed): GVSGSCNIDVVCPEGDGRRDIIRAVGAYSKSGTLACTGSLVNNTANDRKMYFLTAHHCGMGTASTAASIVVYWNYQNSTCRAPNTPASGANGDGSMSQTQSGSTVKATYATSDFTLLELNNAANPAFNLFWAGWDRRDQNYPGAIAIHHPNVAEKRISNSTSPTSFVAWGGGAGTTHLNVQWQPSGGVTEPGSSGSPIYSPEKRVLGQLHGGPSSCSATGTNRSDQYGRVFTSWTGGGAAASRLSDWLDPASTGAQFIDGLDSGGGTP

Take `Cc1cc(=O)oc2cc(NC(=O)[C@H](CCCC[N+](C)(C)C)NC(=O)OC(C)(C)C)ccc12` [BocLys(Me)3MCA, trimethylated BocLysMCA]: the “fluorescence intensity of AMC when the fluorescence intensity for BocLysMCA was set to 100%” value (shortened to “fluorescence intensity of AMC … to 100%”) with trypsin [1] stood at 0.24%; on lysyl endopeptidase [2], 0.25%. Moreover, the “hydrolysis by trypsin (LC/MS peaks)” value in the assay with trypsin [3] was “almost no occurrence of hydrolysis”. Also, at lysyl endopeptidase [4], the “hydrolysis by lysyl endopeptidase (LC/MS peaks)” value was “almost no occurrence of hydrolysis”.
On to `CNCCCC[C@H](NC(=O)OC(C)(C)C)C(=O)Nc1ccc2c(C)cc(=O)oc2c1` [BocLys(Me)MCA, monomethylated BocLysMCA], for which the “fluorescence intensity of AMC … to 100%” value was determined as 2.7% in the assay on trypsin [1] and 0.096% at lysyl endopeptidase [2]. In the assay on trypsin [3], the “hydrolysis by trypsin (LC/MS peaks)” value is “almost no occurrence of hydrolysis”. At lysyl endopeptidase [4], the “hydrolysis by lysyl endopeptidase (LC/MS peaks)” value was “almost no occurrence of hydrolysis”.
As for `Cc1cc(=O)oc2cc(NC(=O)[C@H](CCCCN(C)C)NC(=O)OC(C)(C)C)ccc12` [BocLys(Me)2MCA, dimethylated BocLysMCA], the “fluorescence intensity of AMC … to 100%” value was found to be 0.12% with trypsin [1] and 0.053% on lysyl endopeptidase [2]. Also, the “hydrolysis by trypsin (LC/MS peaks)” value in the assay on trypsin [3] is “almost no occurrence of hydrolysis”. Also, the “hydrolysis by lysyl endopeptidase (LC/MS peaks)” value at lysyl endopeptidase [4] is reported as “almost no occurrence of hydrolysis”.
On to `Nc1ncnc2c1ncn2[C@@H]1O[C@H](CSCC[C@H](N)C(=O)O)[C@@H](O)[C@H]1O` [SAH, S-Adenosyl-L-homocysteine], for which the IC50 – broadly, the point on the concentration scale where inhibition reaches its midpoint – at G9a (GST-mG9a) amounted to 490 µM.
